Measured values reported in article PMC11963559, “Identification of novel thiazole derivatives as flaviviral protease inhibitors effective against Dengue (DENV2) and Japanese encephalitis viruses” (Antimicrobial Agents and Chemotherapy, 2025).

System: JEV
Assay: JEV replication in BHK-21 cells, viral RNA by qRT-PCR
Type: cell-based
Conditions: for IC50: BHK-21, 24 h, read-out: IC50, reduction of JEV viral RNA
Procedure: Therefore, we sought to evaluate the efficacy of these compounds against JEV to assess their broad-spectrum anti-viral action against flaviviruses.
BHK-21 cells were seeded in a 24-well cell culture plate at a density of (0.25 × 10^6 cells/well) with regular growth medium containing DMEM + 10% FBS 1 day prior to infection in triplicate. Once the cells reached 85%–90% confluence, they were infected with DENV2 and JEV virus inoculum comprising DMEM + 2% FBS and 10 µM of the compound at an MOI of 0.1. Cells were incubated for 1.5 h at 37 °C with the virus-compound inoculum, with gentle rocking every 10 min to ensure even coverage and prevent the cellular monolayer from drying. […] The cell culture supernatant was aspirated and washed with PBS, and the cellular monolayer was used for viral RNA isolation.
Total cellular RNA was extracted from BHK-21 cells using TRIzol reagent, according to the manufacturer’s instructions (Ambion Life Technologies, USA). RNA quantity and integrity were determined prior to use on a NanoDrop spectrophotometer (Thermo Fisher Scientific). Then, 1 µg of total RNA from each experimental sample was used to synthesize cDNA by reverse transcriptase (RT) by incubating the RNAs with Moloney murine leukemia virus (M-MuLV) RT, with specific RT primer, 5′-[…]-3′ (Tm = 63 °C), and deoxynucleoside triphosphates (dNTPs) (New England Biolabs) at 42 °C for 50 min, followed by inactivation at 70 °C for 15 min.
To quantify the viral RNA copy number, quantitative RT-PCR (qRT-PCR) was performed in duplicate using iTaq Universal SYBR Green Supermix (Bio-Rad). The cDNAs used for qPCR analysis were prepared using Power SYBR Green PCR Master Mix (Bio-Rad, #172–5125) in a QuantStudio5 Applied Biosystems real-time PCR system. […] Delta Ct for both control and compound-treated samples was determined and subsequently analyzed by determining the delta Ct to determine the mRNA expression of target genes in control vs treated samples.

Row | SMILES | IC50 [µM] | SI, selectivity index (CC50/IC50) (JEV, BHK-21 cells, qRT-PCR IC50)
1 | COc1ccc(-c2csc(N/N=C(\C)c3cc(O)cc(O)c3)n2)cc1 [3au] | 1.16 ± 0.16 | 67.8
2 | COc1ccc(-c2csc(N/N=C(\C)c3ccc(O)cc3)n2)cc1 [3aq] | 1.03 ± 0.21 | –
